Active and inactive are the calls of the source. The calls are words filed in the database; no cut-off is given here.
Target: T1, Kynureninase (Homo sapiens) (UniProt Q16719)
T1 sequence (whole entry): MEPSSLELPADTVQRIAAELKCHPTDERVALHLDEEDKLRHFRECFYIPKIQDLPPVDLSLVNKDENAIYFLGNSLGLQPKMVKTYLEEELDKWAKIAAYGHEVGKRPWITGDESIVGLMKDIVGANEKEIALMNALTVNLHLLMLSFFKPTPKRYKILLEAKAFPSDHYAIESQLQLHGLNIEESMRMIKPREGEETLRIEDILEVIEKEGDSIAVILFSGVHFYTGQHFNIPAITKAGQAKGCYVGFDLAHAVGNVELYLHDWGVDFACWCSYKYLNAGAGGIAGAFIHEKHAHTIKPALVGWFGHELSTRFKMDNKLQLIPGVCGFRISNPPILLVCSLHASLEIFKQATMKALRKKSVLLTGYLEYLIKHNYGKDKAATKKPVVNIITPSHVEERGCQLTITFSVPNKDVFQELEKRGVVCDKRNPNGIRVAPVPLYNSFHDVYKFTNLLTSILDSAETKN
Experiment: Inhibition of human kynureninase at 1 mM

Activity | Compound
inactive | O=C(O)CNC(=O)c1ccccc1
inactive | Nc1c(O)cccc1C(=O)NCC(=O)O

From ChEMBL document CHEMBL1139388, “Crystal structure of the Homo sapiens kynureninase-3-hydroxyhippuric acid inhibitor complex: insights into the molecular basis of kynureninase substrate specificity” (J Med Chem, 2009)
